Assay results published in PubChem BioAssay AID1963829 (Molecular Pharmacology Branch, DTP, NCI, 2024).

Tested on: 935938-334-R-J1-PDC complex spheroid viability
Assay: Anticancer human tumor 935938-334-R-J1-PDC patient-derived small intestine adenocarcinoma cell line growth inhibition [POLQ]
Conditions: for IC50: curve of first compound; for viability, T/C: stronger effect = lower value
Summary of the method: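 Growth inhibition in 3D: complex spheroids (tumor PDC, HUVEC, MSC) treated with POLQ inhibitor combinations; where Cmax unknown, highest tested concentration 10 microM, except SN-38 at 1 microM.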

[1] = second compound 0.0316 µM, first compound 0.0316 µM
[2] = second compound 0.0316 µM, first compound 0.1 µM
[3] = second compound 0.0316 µM, first compound 0.316 µM
[4] = second compound 0.0316 µM, first compound 1 µM
[5] = second compound 0.0316 µM, first compound 3.16 µM
[6] = second compound 0.0316 µM, first compound 10 µM
[7] = second compound 0.1 µM, first compound 0.0316 µM
[8] = second compound 0.1 µM, first compound 0.1 µM
[9] = second compound 0.1 µM, first compound 0.316 µM
[10] = second compound 0.1 µM, first compound 1 µM
[11] = second compound 0.1 µM, first compound 3.16 µM
[12] = second compound 0.1 µM, first compound 10 µM
[13] = second compound 0.316 µM, first compound 0.0316 µM
[14] = second compound 0.316 µM, first compound 0.1 µM
[15] = second compound 0.316 µM, first compound 0.316 µM
[16] = second compound 0.316 µM, first compound 1 µM
[17] = second compound 0.316 µM, first compound 3.16 µM
[18] = second compound 0.316 µM, first compound 10 µM
[19] = second compound 1 µM, first compound 0.0316 µM
[20] = second compound 1 µM, first compound 0.1 µM
[21] = second compound 1 µM, first compound 0.316 µM
[22] = second compound 1 µM, first compound 1 µM
[23] = second compound 1 µM, first compound 3.16 µM
[24] = second compound 1 µM, first compound 10 µM
[25] = second compound 3.16 µM, first compound 0.0316 µM
[26] = second compound 3.16 µM, first compound 0.1 µM
[27] = second compound 3.16 µM, first compound 0.316 µM
[28] = second compound 3.16 µM, first compound 1 µM
[29] = second compound 3.16 µM, first compound 3.16 µM
[30] = second compound 3.16 µM, first compound 10 µM
[31] = second compound 10 µM, first compound 0.0316 µM
[32] = second compound 10 µM, first compound 0.1 µM
[33] = second compound 10 µM, first compound 0.316 µM
[34] = second compound 10 µM, first compound 1 µM
[35] = second compound 10 µM, first compound 3.16 µM
[36] = second compound 10 µM, first compound 10 µM
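Also: spheroids exposed to drugs for seven days before viability read.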
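For viability, T/C in this document: 100% = DMSO vehicle control wells.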

CCCS(=O)(=O)Nc1ccc(F)c(C(=O)c2c[nH]c3ncc(-c4ccc(Cl)cc4)cc23)c1F + Cc1cccc(N(C)C(=O)C2C(O)CCN2c2nc(C)cc(C(F)(F)F)c2C#N)c1
IC50 (second compound 0.0316 µM): > 10000 nM
IC50 (second compound 0.1 µM): 9270 nM
IC50 (second compound 0.316 µM): 9180 nM
IC50 (second compound 1 µM): 9750 nM
IC50 (second compound 3.16 µM): > 10000 nM
IC50 (second compound 10 µM): 9010 nM
viability, T/C [1]: 85.3%
viability, T/C [2]: 97.4%
viability, T/C [3]: 117%
viability, T/C [4]: 147%
viability, T/C [5]: 146%
viability, T/C [6]: 51%
viability, T/C [7]: 114%
viability, T/C [8]: 119%
viability, T/C [9]: 166%
viability, T/C [10]: 121%
viability, T/C [11]: 112%
viability, T/C [12]: 45%
viability, T/C [13]: 97.4%
viability, T/C [14]: 115%
viability, T/C [15]: 119%
viability, T/C [16]: 120%
viability, T/C [17]: 120%
viability, T/C [18]: 44.8%
viability, T/C [19]: 95.7%
viability, T/C [20]: 125%
viability, T/C [21]: 121%
viability, T/C [22]: 148%
viability, T/C [23]: 131%
viability, T/C [24]: 48.2%
viability, T/C [25]: 88.9%
viability, T/C [26]: 108%
viability, T/C [27]: 123%
viability, T/C [28]: 151%
viability, T/C [29]: 113%
viability, T/C [30]: 51.4%
viability, T/C [31]: 106%
viability, T/C [32]: 109%
viability, T/C [33]: 127%
viability, T/C [34]: 146%
viability, T/C [35]: 149%
viability, T/C [36]: 42.1%

CC(=O)O[C@H]1C(=O)[C@@]2(C)[C@H]([C@H](OC(=O)c3ccccc3)[C@]3(O)C[C@H](OC(=O)[C@H](O)[C@@H](NC(=O)c4ccccc4)c4ccccc4)C(C)=C1C3(C)C)[C@]1(OC(C)=O)CO[C@@H]1C[C@@H]2O + Nc1ccc(C#CCN(C(=O)Cc2ncc(C(F)(F)F)cc2C(F)(F)F)c2ccc(F)cc2)nn1
IC50 (second compound 0.0316 µM): < 9.49 nM
IC50 (second compound 0.1 µM): < 9.49 nM
IC50 (second compound 0.316 µM): < 9.49 nM
IC50 (second compound 1 µM): < 9.49 nM
IC50 (second compound 3.16 µM): < 9.49 nM
IC50 (second compound 10 µM): < 9.49 nM
viability, T/C (second compound 0.0316 µM, first compound 0.00949 µM): 44.6%
viability, T/C (second compound 0.0316 µM, first compound 0.03 µM): 17.6%
viability, T/C (second compound 0.0316 µM, first compound 0.0949 µM): 13.5%
viability, T/C (second compound 0.0316 µM, first compound 0.3 µM): 18.1%
viability, T/C (second compound 0.0316 µM, first compound 0.949 µM): 16.1%
viability, T/C (second compound 0.0316 µM, first compound 3 µM): 16.3%
viability, T/C (second compound 0.1 µM, first compound 0.00949 µM): 34%
viability, T/C (second compound 0.1 µM, first compound 0.03 µM): 18%
viability, T/C (second compound 0.1 µM, first compound 0.0949 µM): 17.1%
viability, T/C (second compound 0.1 µM, first compound 0.3 µM): 17.1%
viability, T/C (second compound 0.1 µM, first compound 0.949 µM): 17.8%
viability, T/C (second compound 0.1 µM, first compound 3 µM): 21.7%
viability, T/C (second compound 0.316 µM, first compound 0.00949 µM): 43%
viability, T/C (second compound 0.316 µM, first compound 0.03 µM): 18.5%
viability, T/C (second compound 0.316 µM, first compound 0.0949 µM): 14.1%
viability, T/C (second compound 0.316 µM, first compound 0.3 µM): 11.7%
viability, T/C (second compound 0.316 µM, first compound 0.949 µM): 15.3%
viability, T/C (second compound 0.316 µM, first compound 3 µM): 15.9%
viability, T/C (second compound 1 µM, first compound 0.00949 µM): 30%
viability, T/C (second compound 1 µM, first compound 0.03 µM): 21.3%
viability, T/C (second compound 1 µM, first compound 0.0949 µM): 17.1%
viability, T/C (second compound 1 µM, first compound 0.3 µM): 15.5%
viability, T/C (second compound 1 µM, first compound 0.949 µM): 14.3%
viability, T/C (second compound 1 µM, first compound 3 µM): 16.9%
viability, T/C (second compound 3.16 µM, first compound 0.00949 µM): 40.9%
viability, T/C (second compound 3.16 µM, first compound 0.03 µM): 18.5%
viability, T/C (second compound 3.16 µM, first compound 0.0949 µM): 16.3%
viability, T/C (second compound 3.16 µM, first compound 0.3 µM): 13.8%
viability, T/C (second compound 3.16 µM, first compound 0.949 µM): 18.4%
viability, T/C (second compound 3.16 µM, first compound 3 µM): 19.4%
viability, T/C (second compound 10 µM, first compound 0.00949 µM): 47.3%
viability, T/C (second compound 10 µM, first compound 0.03 µM): 18.7%
viability, T/C (second compound 10 µM, first compound 0.0949 µM): 16.7%
viability, T/C (second compound 10 µM, first compound 0.3 µM): 15.5%
viability, T/C (second compound 10 µM, first compound 0.949 µM): 15.8%
viability, T/C (second compound 10 µM, first compound 3 µM): 17.5%

COc1cccc2c1C(=O)c1c(O)c3c(c(O)c1C2=O)CC(O)(C(=O)CO)CC3OC1CC(N)C(O)C(C)O1 (stereo unspecified) + Cc1cccc(N(C)C(=O)C2C(O)CCN2c2nc(C)cc(C(F)(F)F)c2C#N)c1
IC50 (second compound 0.0316 µM): 55.5 nM
IC50 (second compound 0.1 µM): 87.4 nM
IC50 (second compound 0.316 µM): 52 nM
IC50 (second compound 1 µM): 75.3 nM
IC50 (second compound 3.16 µM): 70.5 nM
IC50 (second compound 10 µM): < 31.6 nM
viability, T/C [1]: 60.2%
viability, T/C [2]: 35.3%
viability, T/C [3]: 34.6%
viability, T/C [4]: 21.2%
viability, T/C [5]: 7.49%
viability, T/C [6]: 4.38%
viability, T/C [7]: 63.8%
viability, T/C [8]: 48.5%
viability, T/C [9]: 31.6%
viability, T/C [10]: 23.7%
viability, T/C [11]: 7.55%
viability, T/C [12]: 3.7%
viability, T/C [13]: 56.5%
viability, T/C [14]: 41.8%
viability, T/C [15]: 26.8%
viability, T/C [16]: 19.7%
viability, T/C [17]: 8.13%
viability, T/C [18]: 5.68%
viability, T/C [19]: 75.8%
viability, T/C [20]: 34.2%
viability, T/C [21]: 31.4%
viability, T/C [22]: 19.3%
viability, T/C [23]: 5.12%
viability, T/C [24]: 5.59%
viability, T/C [25]: 63.8%
viability, T/C [26]: 39.4%
viability, T/C [27]: 35.3%
viability, T/C [28]: 19.8%
viability, T/C [29]: 2.97%
viability, T/C [30]: 4.99%
viability, T/C [31]: 49.4%
viability, T/C [32]: 33.8%
viability, T/C [33]: 37.7%
viability, T/C [34]: 16.8%
viability, T/C [35]: 5.04%
viability, T/C [36]: 5.34%
